Test results taken from ChEMBL document CHEMBL3046846, “Synthesis of N-Alkyl-2, 3-dimethyl-5-[N-(5-halo-2-methylphenyl)carbamoyl]-6-pyrazinecarboxamides and Their Herbicidal Activity” (J Pestic Sci, 1997).

test system: Xanthium strumarium; test: Herbicidal activity against Xanthium strumarium (cocklebur) 5000 g/ha after 2 weeks; type: functional; settings: not given

Q: With `CC[C@@H](C)NC(=O)c1nc(C)c(C)nc1C(=O)Nc1cc(Cl)ccc1C` as the compound, how does the Activity read?
A: 95%

Q: `Cc1ccc(F)cc1NC(=O)c1nc(C)c(C)nc1C(=O)NC(C)(C)C` was tested. Which Activity did it give?
A: 95%

Q: For `Cc1ccc(Cl)cc1NC(=O)c1nc(C)c(C)nc1C(=O)NC(C)C`, which Activity is on record?
A: 95%

test system: Glycine max; test: Herbicidal activity against Glycine max (soybean) at 5000 g/ha after 2 weeks; type: organism-based; settings: in vivo, 336 h

Q: For `CC[C@@H](C)NC(=O)c1nc(C)c(C)nc1C(=O)Nc1cc(Cl)ccc1C`, which Activity is on record?
A: < 10%

Q: `Cc1ccc(F)cc1NC(=O)c1nc(C)c(C)nc1C(=O)NC(C)(C)C` was tested. Which Activity did it give?
A: < 10%

Q: Which Activity does the source give for `Cc1ccc(Cl)cc1NC(=O)c1nc(C)c(C)nc1C(=O)NC(C)C` here?
A: < 10%

test system: Veronica persica; test: Herbicidal activity against Veronica persica at 250 g/ha after 2 weeks; type: functional; settings: not given

Q: With `CC[C@@H](C)NC(=O)c1nc(C)c(C)nc1C(=O)Nc1cc(Cl)ccc1C` as the compound, how does the Activity read?
A: 70%

Q: For `Cc1ccc(F)cc1NC(=O)c1nc(C)c(C)nc1C(=O)NC(C)(C)C`, which Activity is on record?
A: <10%

Q: Which Activity does the source give for `Cc1ccc(Cl)cc1NC(=O)c1nc(C)c(C)nc1C(=O)NC(C)C` here?
A: 50%

test system: Triticum aestivum; test: Herbicidal activity against Triticum aestivum (wheat) at 500 g/ha after 2 weeks; type: ADME, organism-based; settings: in vivo, 336 h

Q: For `CC[C@@H](C)NC(=O)c1nc(C)c(C)nc1C(=O)Nc1cc(Cl)ccc1C`, which Activity is on record?
A: < 10%

Q: Which Activity does the source give for `Cc1ccc(F)cc1NC(=O)c1nc(C)c(C)nc1C(=O)NC(C)(C)C` here?
A: < 10%

Q: For `Cc1ccc(Cl)cc1NC(=O)c1nc(C)c(C)nc1C(=O)NC(C)C`, which Activity is on record?
A: < 10%

test system: Triticum aestivum; test: Herbicidal activity against Triticum aestivum (wheat) at 250 g/ha after 2 weeks; type: organism-based; settings: in vivo, 336 h

Q: For `CC[C@@H](C)NC(=O)c1nc(C)c(C)nc1C(=O)Nc1cc(Cl)ccc1C`, which Activity is on record?
A: < 10%

Q: How did the Activity turn out when `Cc1ccc(F)cc1NC(=O)c1nc(C)c(C)nc1C(=O)NC(C)(C)C` was run?
A: < 10%

Q: With `Cc1ccc(Cl)cc1NC(=O)c1nc(C)c(C)nc1C(=O)NC(C)C` as the compound, how does the Activity read?
A: < 10%

test system: Echinochloa crus-galli; test: Herbicidal activity against Echinochloa crus-galli (barnyard grass) at 500 g/ha after 2 weeks; type: functional; settings: not given

Q: For `CC[C@@H](C)NC(=O)c1nc(C)c(C)nc1C(=O)Nc1cc(Cl)ccc1C`, which Activity is on record?
A: <10%

Q: With `Cc1ccc(F)cc1NC(=O)c1nc(C)c(C)nc1C(=O)NC(C)(C)C` as the compound, how does the Activity read?
A: <10%

Q: With `Cc1ccc(Cl)cc1NC(=O)c1nc(C)c(C)nc1C(=O)NC(C)C` as the compound, how does the Activity read?
A: <10%

test system: Echinochloa crus-galli; test: Herbicidal activity against Echinochloa crus-galli (barnyard grass) at 5000 g/ha after 2 weeks; type: functional; settings: not given

Q: Which Activity does the source give for `CC[C@@H](C)NC(=O)c1nc(C)c(C)nc1C(=O)Nc1cc(Cl)ccc1C` here?
A: 95%

Q: Which Activity does the source give for `Cc1ccc(F)cc1NC(=O)c1nc(C)c(C)nc1C(=O)NC(C)(C)C` here?
A: 70%

Q: `Cc1ccc(Cl)cc1NC(=O)c1nc(C)c(C)nc1C(=O)NC(C)C` was tested. Which Activity did it give?
A: 70%

test system: Avena fatua; test: Herbicidal activity against Avena fatua at 250 g/ha after 2 weeks; type: functional; settings: not given

Q: `CC[C@@H](C)NC(=O)c1nc(C)c(C)nc1C(=O)Nc1cc(Cl)ccc1C` was tested. Which Activity did it give?
A: <10%

Q: For `Cc1ccc(F)cc1NC(=O)c1nc(C)c(C)nc1C(=O)NC(C)(C)C`, which Activity is on record?
A: <10%

Q: Which Activity does the source give for `Cc1ccc(Cl)cc1NC(=O)c1nc(C)c(C)nc1C(=O)NC(C)C` here?
A: <10%

test system: Veronica persica; test: Herbicidal activity against Veronica persica at 5000 g/ha after 2 weeks; type: functional; settings: not given

Q: `CC[C@@H](C)NC(=O)c1nc(C)c(C)nc1C(=O)Nc1cc(Cl)ccc1C` was tested. Which Activity did it give?
A: 95%

Q: How did the Activity turn out when `Cc1ccc(F)cc1NC(=O)c1nc(C)c(C)nc1C(=O)NC(C)(C)C` was run?
A: 95%

Q: With `Cc1ccc(Cl)cc1NC(=O)c1nc(C)c(C)nc1C(=O)NC(C)C` as the compound, how does the Activity read?
A: 95%

test system: Galium spurium; test: Herbicidal activity against Galium spurium var. echinospermon (Wally.) Hayek at 250 g/ha after 2 weeks; type: functional; settings: not given

Q: How did the Activity turn out when `CC[C@@H](C)NC(=O)c1nc(C)c(C)nc1C(=O)Nc1cc(Cl)ccc1C` was run?
A: <10%

Q: How did the Activity turn out when `Cc1ccc(F)cc1NC(=O)c1nc(C)c(C)nc1C(=O)NC(C)(C)C` was run?
A: <10%

Q: Which Activity does the source give for `Cc1ccc(Cl)cc1NC(=O)c1nc(C)c(C)nc1C(=O)NC(C)C` here?
A: <10%

test system: Veronica persica; test: Herbicidal activity against Veronica persica at 500 g/ha after 2 weeks; type: functional; settings: not given

Q: How did the Activity turn out when `CC[C@@H](C)NC(=O)c1nc(C)c(C)nc1C(=O)Nc1cc(Cl)ccc1C` was run?
A: 95%

Q: `Cc1ccc(F)cc1NC(=O)c1nc(C)c(C)nc1C(=O)NC(C)(C)C` was tested. Which Activity did it give?
A: 70%

Q: Which Activity does the source give for `Cc1ccc(Cl)cc1NC(=O)c1nc(C)c(C)nc1C(=O)NC(C)C` here?
A: 95%

test system: Abutilon theophrasti; test: Herbicidal activity against Abutilon theophrasti (velvetleaf) at 250 g/ha after 2 weeks; type: functional; settings: not given

Q: How did the Activity turn out when `CC[C@@H](C)NC(=O)c1nc(C)c(C)nc1C(=O)Nc1cc(Cl)ccc1C` was run?
A: <10%

Q: Which Activity does the source give for `Cc1ccc(F)cc1NC(=O)c1nc(C)c(C)nc1C(=O)NC(C)(C)C` here?
A: <10%

Q: `Cc1ccc(Cl)cc1NC(=O)c1nc(C)c(C)nc1C(=O)NC(C)C` was tested. Which Activity did it give?
A: <10%

test system: Galium spurium; test: Herbicidal activity against Galium spurium var. echinospermon (Wally.) Hayek at 5000 g/ha after 2 weeks; type: functional; settings: not given

Q: How did the Activity turn out when `CC[C@@H](C)NC(=O)c1nc(C)c(C)nc1C(=O)Nc1cc(Cl)ccc1C` was run?
A: 95%

Q: How did the Activity turn out when `Cc1ccc(F)cc1NC(=O)c1nc(C)c(C)nc1C(=O)NC(C)(C)C` was run?
A: 10%

Q: With `Cc1ccc(Cl)cc1NC(=O)c1nc(C)c(C)nc1C(=O)NC(C)C` as the compound, how does the Activity read?
A: 95%

test system: Glycine max; test: Herbicidal activity against Glycine max (soybean) at 250 g/ha after 2 weeks; type: organism-based; settings: in vivo, 336 h

Q: With `CC[C@@H](C)NC(=O)c1nc(C)c(C)nc1C(=O)Nc1cc(Cl)ccc1C` as the compound, how does the Activity read?
A: < 10%

Q: For `Cc1ccc(F)cc1NC(=O)c1nc(C)c(C)nc1C(=O)NC(C)(C)C`, which Activity is on record?
A: < 10%

Q: `Cc1ccc(Cl)cc1NC(=O)c1nc(C)c(C)nc1C(=O)NC(C)C` was tested. Which Activity did it give?
A: < 10%

test system: Xanthium strumarium; test: Herbicidal activity against Xanthium strumarium (cocklebur) 250 g/ha after 2 weeks; type: functional; settings: not given

Q: For `CC[C@@H](C)NC(=O)c1nc(C)c(C)nc1C(=O)Nc1cc(Cl)ccc1C`, which Activity is on record?
A: <10%

Q: How did the Activity turn out when `Cc1ccc(F)cc1NC(=O)c1nc(C)c(C)nc1C(=O)NC(C)(C)C` was run?
A: <10%

Q: How did the Activity turn out when `Cc1ccc(Cl)cc1NC(=O)c1nc(C)c(C)nc1C(=O)NC(C)C` was run?
A: 50%

test system: Echinochloa crus-galli; test: Herbicidal activity against Echinochloa crus-galli (barnyard grass) at 250 g/ha after 2 weeks; type: functional; settings: not given

Q: Which Activity does the source give for `CC[C@@H](C)NC(=O)c1nc(C)c(C)nc1C(=O)Nc1cc(Cl)ccc1C` here?
A: <10%

Q: With `Cc1ccc(F)cc1NC(=O)c1nc(C)c(C)nc1C(=O)NC(C)(C)C` as the compound, how does the Activity read?
A: <10%

Q: Which Activity does the source give for `Cc1ccc(Cl)cc1NC(=O)c1nc(C)c(C)nc1C(=O)NC(C)C` here?
A: <10%

test system: Xanthium strumarium; test: Herbicidal activity against Xanthium strumarium (cocklebur) 500 g/ha after 2 weeks; type: functional; settings: not given

Q: `CC[C@@H](C)NC(=O)c1nc(C)c(C)nc1C(=O)Nc1cc(Cl)ccc1C` was tested. Which Activity did it give?
A: <10%

Q: Which Activity does the source give for `Cc1ccc(F)cc1NC(=O)c1nc(C)c(C)nc1C(=O)NC(C)(C)C` here?
A: <10%

Q: `Cc1ccc(Cl)cc1NC(=O)c1nc(C)c(C)nc1C(=O)NC(C)C` was tested. Which Activity did it give?
A: 50%

test system: Glycine max; test: Herbicidal activity against Glycine max (soybean) at 500 g/ha after 2 weeks; type: organism-based; settings: in vivo, 336 h

Q: For `CC[C@@H](C)NC(=O)c1nc(C)c(C)nc1C(=O)Nc1cc(Cl)ccc1C`, which Activity is on record?
A: < 10%

Q: How did the Activity turn out when `Cc1ccc(F)cc1NC(=O)c1nc(C)c(C)nc1C(=O)NC(C)(C)C` was run?
A: < 10%

Q: For `Cc1ccc(Cl)cc1NC(=O)c1nc(C)c(C)nc1C(=O)NC(C)C`, which Activity is on record?
A: < 10%

test system: Triticum aestivum; test: Herbicidal activity against Triticum aestivum (wheat) at 5000 g/ha after 2 weeks; type: ADME, organism-based; settings: in vivo, 336 h

Q: `CC[C@@H](C)NC(=O)c1nc(C)c(C)nc1C(=O)Nc1cc(Cl)ccc1C` was tested. Which Activity did it give?
A: 30%

Q: Which Activity does the source give for `Cc1ccc(F)cc1NC(=O)c1nc(C)c(C)nc1C(=O)NC(C)(C)C` here?
A: 30%

Q: How did the Activity turn out when `Cc1ccc(Cl)cc1NC(=O)c1nc(C)c(C)nc1C(=O)NC(C)C` was run?
A: 30%

test system: Galium spurium; test: Herbicidal activity against Galium spurium var. echinospermon (Wally.) Hayek at 500 g/ha after 2 weeks; type: functional; settings: not given

Q: How did the Activity turn out when `CC[C@@H](C)NC(=O)c1nc(C)c(C)nc1C(=O)Nc1cc(Cl)ccc1C` was run?
A: <10%

Q: Which Activity does the source give for `Cc1ccc(F)cc1NC(=O)c1nc(C)c(C)nc1C(=O)NC(C)(C)C` here?
A: <10%

Q: With `Cc1ccc(Cl)cc1NC(=O)c1nc(C)c(C)nc1C(=O)NC(C)C` as the compound, how does the Activity read?
A: <10%

test system: Abutilon theophrasti; test: Herbicidal activity against Abutilon theophrasti (velvetleaf) at 500 g/ha after 2 weeks; type: functional; settings: not given

Q: `CC[C@@H](C)NC(=O)c1nc(C)c(C)nc1C(=O)Nc1cc(Cl)ccc1C` was tested. Which Activity did it give?
A: <10%

Q: For `Cc1ccc(F)cc1NC(=O)c1nc(C)c(C)nc1C(=O)NC(C)(C)C`, which Activity is on record?
A: <10%

Q: How did the Activity turn out when `Cc1ccc(Cl)cc1NC(=O)c1nc(C)c(C)nc1C(=O)NC(C)C` was run?
A: <10%

test system: Abutilon theophrasti; test: Herbicidal activity against Abutilon theophrasti (velvetleaf) at 5000 g/ha after 2 weeks; type: functional; settings: not given

Q: With `CC[C@@H](C)NC(=O)c1nc(C)c(C)nc1C(=O)Nc1cc(Cl)ccc1C` as the compound, how does the Activity read?
A: 95%

Q: `Cc1ccc(F)cc1NC(=O)c1nc(C)c(C)nc1C(=O)NC(C)(C)C` was tested. Which Activity did it give?
A: 95%

Q: With `Cc1ccc(Cl)cc1NC(=O)c1nc(C)c(C)nc1C(=O)NC(C)C` as the compound, how does the Activity read?
A: 95%

test system: Avena fatua; test: Herbicidal activity against Avena fatua at 500 g/ha after 2 weeks; type: functional; settings: not given

Q: For `CC[C@@H](C)NC(=O)c1nc(C)c(C)nc1C(=O)Nc1cc(Cl)ccc1C`, which Activity is on record?
A: <10%

Q: With `Cc1ccc(F)cc1NC(=O)c1nc(C)c(C)nc1C(=O)NC(C)(C)C` as the compound, how does the Activity read?
A: <10%

Q: Which Activity does the source give for `Cc1ccc(Cl)cc1NC(=O)c1nc(C)c(C)nc1C(=O)NC(C)C` here?
A: <10%

test system: Avena fatua; test: Herbicidal activity against Avena fatua at 5000 g/ha after 2 weeks; type: functional; settings: not given

Q: `CC[C@@H](C)NC(=O)c1nc(C)c(C)nc1C(=O)Nc1cc(Cl)ccc1C` was tested. Which Activity did it give?
A: 30%

Q: Which Activity does the source give for `Cc1ccc(F)cc1NC(=O)c1nc(C)c(C)nc1C(=O)NC(C)(C)C` here?
A: 95%

Q: `Cc1ccc(Cl)cc1NC(=O)c1nc(C)c(C)nc1C(=O)NC(C)C` was tested. Which Activity did it give?
A: 50%
